Where two headings read alike, the source gives them in different places.
Biological target: T1, Full-length glucokinase (beta cell isoform) (Homo sapiens, UniProt P35557)
T1 construct: Full-length glucokinase (beta cell isoform) was His-tagged at N-terminus; His tag (N); made in house
T1 sequence (P35557 1-465): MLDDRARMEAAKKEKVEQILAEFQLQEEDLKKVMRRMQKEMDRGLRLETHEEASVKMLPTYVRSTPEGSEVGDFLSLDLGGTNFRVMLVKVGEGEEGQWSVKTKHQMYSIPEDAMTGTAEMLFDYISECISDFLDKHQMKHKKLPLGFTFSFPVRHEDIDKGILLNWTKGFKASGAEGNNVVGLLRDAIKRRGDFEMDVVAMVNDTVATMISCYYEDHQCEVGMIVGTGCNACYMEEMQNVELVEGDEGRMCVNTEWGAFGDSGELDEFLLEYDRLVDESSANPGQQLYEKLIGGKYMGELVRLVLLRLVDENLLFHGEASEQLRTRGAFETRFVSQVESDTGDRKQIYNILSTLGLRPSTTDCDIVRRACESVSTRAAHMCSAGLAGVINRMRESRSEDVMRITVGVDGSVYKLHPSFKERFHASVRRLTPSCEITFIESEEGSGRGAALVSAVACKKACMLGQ
Test: Glucokinase biochemical assay (PK/LDH-coupled, NADH depletion at 340 nm): % activation, EC50, % max activation
Settings: 5 mM glucose; for activation at 10 µM: read-out: % Activation at 10 uM; for EC50: GK activation, read-out: EC50; for Emax: fitted maximum activation, read-out: % Max Activation
Outline: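 Activation expressed as (Va/Vo−1)×100, where initial rates with and without compound come from NADH depletion at 340 nm over 200–900 s. Enzyme is His-tagged human beta-cell GK, full length, run at room temperature in HEPES buffer with 1 mM ATP and 5 mM glucose. DMSO 1%.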

[1] = 10 uM compound, % Activation=(Va/Vo−1)×100
[2] = compound at 10 uM, 1 mM ATP, room temperature

| Compound | activation at 10 µM [1] | EC50 | Emax | activation at 10 µM [2] |
| --- | --- | --- | --- | --- |
| Cc1ccc(NC(=O)c2cc(Oc3ccc(S(C)(=O)=O)cc3)c3cc(CN(C)C)oc3c2)nc1 [Example 319, 2-[(Dimethylamino)methyl]-N-(5-methylpyridin-2-yl)-4-[4-(methylsulfonyl)-phenoxy]-1-benzofuran-6-carboxamide] | 59.7% | 5000 nM | 90% |  |
| COCC1(C)Cc2c(Oc3ccc(S(C)(=O)=O)c(F)c3)cc(C(=O)Nc3ccn(C)n3)cc2O1 (centres unmarked) [Example 237, 4-(3-Fluoro-4-methanesulfonyl-phenoxy)-2-methoxymethyl-2-methyl-2,3-dihydro-benzofuran-6-carboxylic acid (1-methyl-1H-pyrazol-3-yl)-amide] | 189% | 98 nM | 157% |  |
| Cn1ncc(NC(=O)c2cc(Oc3ccc(S(C)(=O)=O)cc3)c3cc(C(=O)N4CCC4)oc3c2)n1 [Example 292, 2-(Azetidin-1-ylcarbonyl)-4-[4-(methylsulfonyl)phenoxy]-N-(2-methyl-2H-1,2,3-triazol-4-yl)-1-benzofuran-6-carboxamide] | 16.7% |  |  |  |
| Cn1ccc(NC(=O)c2cc(Oc3ccc(S(=O)(=O)C4CC4)cc3)c3c(c2)OC(C)(C)C3)n1 [Example 129, 4-(4-Cyclopropanesulfonyl-phenoxy)-2,2-dimethyl-2,3-dihydro-benzofuran-6-carboxylic acid (1-methyl-1H-pyrazol-3-yl)-amide] | 185% | 89 nM | 160% |  |
| Cn1ccc(NC(=O)c2cc(OCc3noc(C(C)(C)C)n3)c3c(c2)OC(C)(C)C3)n1 [Example 91, 4-(5-tert-Butyl-[1,2,4]oxadiazol-3-ylmethoxy)-2,2-dimethyl-2,3-dihydro-benzofuran-6-carboxylic acid (1-methyl-1H-pyrazol-3-yl)-amide] | 150% | 3500 nM | 150% |  |
| Cn1ncc(NC(=O)c2cc(Oc3ccc(S(C)(=O)=O)cc3Cl)c3c(c2)OC(C)(C)C3)n1 [Example 119, 4-(2-Chloro-4-methanesulfonyl-phenoxy)-2,2-dimethyl-2,3-dihydro-benzofuran-6-carboxylic acid (2-methyl-2H-[1,2,3]triazol-4-yl)-amide] | 242% | 430 nM | 223% |  |
| Cn1ccc(NC(=O)c2cc(Oc3ccc(C(=O)N4CCC4)cc3)c3c(c2)OC(C(F)F)C3)n1 (centres unmarked) [Example 226, 4-[4-(Azetidine-1-carbonyl)-phenoxy]-2-difluoromethyl-2,3-dihydro-benzofuran-6-carboxylic acid (1-methyl-1H-pyrazol-3-yl)-amide] | 112% | 640 nM | 137% |  |
| CN(C)C(=O)c1ccc(Oc2cc(C(=O)Nc3ccn(C)n3)cc3c2CC(C)(C)O3)cc1 [Example 149, 4-(4-Dimethylcarbamoyl-phenoxy)-2,2-dimethyl-2,3-dihydro-benzofuran-6-carboxylic acid (1-methyl-1H-pyrazol-3-yl)-amide] | 105% | 120 nM | 104% |  |
| CCOc1ccc(NC(=O)c2cc(Oc3ccc(S(=O)(=O)N4CCC4)cc3)c3cc(C)oc3c2)nc1 [Example 302, 4-(4-(Azetidin-1-ylsulfonyl)phenoxy)-N-(5-ethoxypyridin-2-yl)-2-methyl-benzofuran-6-carboxamide] | 123% | 1300 nM | 110% |  |
| Cc1ccc(NC(=O)c2cc(Oc3ccc(S(C)(=O)=O)cc3)c3oc(C)nc3c2)nc1 [Example 369, 2-Methyl-N-(5-methylpyridin-2-yl)-7-[4-(methylsulfonyl)-phenoxy]-1,3-benzoxazole-5-carboxamide] | 66.1% | 3700 nM | 66% |  |
| Cn1ncc(NC(=O)c2cc(Oc3ccc(C#N)c(F)c3)c3c(c2)OC(C)(C)C3)n1 [Example 184, 4-(4-Cyano-3-fluoro-phenoxy)-2,2-dimethyl-2,3-dihydro-benzofuran-6-carboxylic acid (2-methyl-2H-[1,2,3]triazol-4-yl)-amide] | 250% | 3200 nM | 251% |  |
| Cc1cc2c(Oc3ccc(S(C)(=O)=O)cc3)cc(C(=O)Nc3ccc(Cl)cn3)cc2o1 [Example 260, N-(5-chloropyridin-2-yl)-2-methyl-4-(4-(methylsulfonyl)-phenoxy)benzofuran-6-carboxamide] | 53.1% | 2900 nM | 69% |  |
| Cn1ccc(NC(=O)c2cc(Oc3ccc(C(=O)N4CC(O)C4)c(F)c3)c3c(c2)OC(C)(C)C3)n1 [Example 55, 4-[3-Fluoro-4-(3-hydroxy-azetidine-1-carbonyl)-phenoxy]-2,2-dimethyl-2,3-dihydro-benzofuran-6-carboxylic acid(1-methyl-1H-pyrazol-3-yl)-amide] | 143% | 680 nM | 129% |  |
| CC1(C)Cc2c(Oc3ccc(S(C)(=O)=O)cc3)cc(C(=O)Nc3ccc(C(N)=O)cn3)cc2O1 [Example 15, 6-{[4-(4-Methanesulfonyl-phenoxy)-2,2-dimethyl-2,3-dihydro-benzofuran-6-carbonyl]-amino}-nicotinamide] | 4.3% |  |  |  |
| Cc1ccc(NC(=O)c2cc(OC(C)C)cc3oc(C(=O)N4CCC4)cc23)nc1 [Example 349, 2-(Azetidine-1-carbonyl)-6-isopropoxy-N-(5-methylpyridin-2-yl)benzofuran-4-carboxamide] | -32.1% |  |  |  |
| Cc1cc2c(Oc3ccc(S(=O)(=O)N4CCC4)cc3)cc(C(=O)Nc3ccn(C)n3)cc2o1 [Example 294, 4-(4-(Azetidin-1-ylsulfonyl)phenoxy)-2-methyl-N-(1-methyl-1H-pyrazol-3-yl)benzofuran-6-carboxamide] | 122% | 200 nM | 132% |  |
| COCCN(C)C(=O)c1ccc(Oc2cc(C(=O)Nc3ccn(C)n3)cc3c2CC(C)(C)O3)cc1F [Example 64, 4-{3-Fluoro-4-[(2-methoxy-ethyl)-methyl-carbamoyl]-phenoxy}-2,2-dimethyl-2,3-dihydro-benzofuran-6-carboxylic acid(1-methyl-1H-pyrazol-3-yl)-amide] | 172% | 270 nM | 158% |  |
| COCCN1Cc2c(Oc3ccc(S(C)(=O)=O)cc3)cc(C(=O)Nc3ccn(C)n3)cc2C1=O [Example 388, 2-(2-Methoxyethyl)-N-(1-methyl-1H-pyrazol-3-yl)-7-(4-(methylsulfonyl)-phenoxy)-3-oxoisoindoline-5-carboxamide] |  |  |  | 39.7% |
| Cn1ccc(NC(=O)c2cc(OCc3ccccc3)c3c(c2)OC(C(F)F)C3)n1 (centres unmarked) [Example 222, 4-Benzyloxy-2-difluoromethyl-2,3-dihydro-benzofuran-6-carboxylic acid (1-methyl-1H-pyrazol-3-yl)-amide] | 61.1% | > 10000 nM |  |  |
| Cc1cc2c(Oc3ccc(S(C)(=O)=O)cc3)cc(C(=O)Nc3ccc(CO)cn3)cc2o1 [Example 266, N-(5-(Hydroxymethyl)pyridin-2-yl)-2-methyl-4-(4-(methylsulfonyl)-phenoxy)-benzofuran-6-carboxamide] | 81.4% | 1000 nM | 91% |  |
| Cc1cc2c(Oc3ccc(S(C)(=O)=O)cc3)cc(C(=O)Nc3cnc(N(C)C)cn3)cc2o1 [Example 262, N-(5-(Dimethylamino)pyrazin-2-yl)-2-methyl-4-(4-(methylsulfonyl)-phenoxy)-benzofuran-6-carboxamide] | 151% | 780 nM | 137% |  |
| Cc1ccc(NC(=O)c2cc(Oc3ccc(S(C)(=O)=O)cc3)c3cc(C(F)F)oc3c2)nc1 [Example 321, 2-(Difluoromethyl)-N-(5-methylpyridin-2-yl)-4-[4-(methylsulfonyl)-phenoxy]-1-benzofuran-6-carboxamide] | 100% | 4300 nM | 132% |  |
| CCc1cc2c(Oc3ccc(S(C)(=O)=O)cc3)cc(C(=O)Nc3ccc(C)cn3)cc2o1 [Example 274, 2-Ethyl-N-(5-methylpyridin-2-yl)-4-[4-(methylsulfonyl)-phenoxy]-1-benzofuran-6-carboxamide] | 131% | 2400 nM | 121% |  |
| Cn1ccc(NC(=O)c2cc(Oc3ccc(C(=O)O)nc3)c3c(c2)OC(C)(C)C3)n1 [Example 180, 5-[2,2-Dimethyl-6-(1-methyl-1H-pyrazol-3-ylcarbamoyl)-2,3-dihydro-benzofuran-4-yloxy]-pyridine-2-carboxylic acid] | 66.5% | > 10000 nM |  |  |
| Cc1ccc(NC(=O)c2cc(Oc3ccc(S(C)(=O)=O)cc3)c3c(c2)C(=O)N(C)CC3)nc1 [Example 390, 2-Methyl-N-(5-methylpyridin-2-yl)-5-(4-(methylsulfonyl)-phenoxy)-1-oxo-1,2,3,4-tetrahydroisoquinoline-7-carboxamide] |  |  |  | 28.9% |
| CC(C)Oc1cc(C(=O)Nc2ccn(C)n2)cc2c1CC(CN(C)C)O2 (centres unmarked) [Example 218, 2-Dimethylaminomethyl-4-isopropoxy-2,3-dihydro-benzofuran-6-carboxylic acid (1-methyl-1H-pyrazol-3-yl)-amide] | 43.1% | > 10000 nM |  |  |

— US8119624B2, “Fused phenyl amido heterocyclic compounds” (Pfizer Inc., priority 2006, dated 2012)
